From ChEMBL document CHEMBL1151018, “Studies On uro'gen III synthase with modified bilanes” (Bioorg Med Chem Lett, 1994)
Active and inactive are the calls of the source. No cut-off for these calls is given here.

The compounds below were run against T1, Uroporphyrinogen-III synthase (Homo sapiens) (UniProt P10746) (assay: Compound was tested for its activity as substrate of Uroporphyrinogen III synthase; Poor substrate).
T1 sequence (whole entry): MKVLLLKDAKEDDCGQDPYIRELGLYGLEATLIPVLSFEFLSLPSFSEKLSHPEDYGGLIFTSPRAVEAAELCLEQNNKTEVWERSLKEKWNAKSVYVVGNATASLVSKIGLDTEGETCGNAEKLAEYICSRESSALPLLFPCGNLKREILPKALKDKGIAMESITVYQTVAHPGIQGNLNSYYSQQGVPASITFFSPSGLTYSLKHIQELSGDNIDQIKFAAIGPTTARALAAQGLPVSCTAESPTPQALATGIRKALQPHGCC
With `Cc1c(CCC(=O)O)c[nH]c1Cc1[nH]c(Cc2[nH]c(Cc3[nH]c(CO)c(CC(=O)O)c3CCC(=O)O)c(CC(=O)O)c2CCC(=O)O)c(CC(=O)O)c1CCC(=O)O` the Activity was “(+)”.

What follows are compounds tested against T1, Uroporphyrinogen-III synthase (Homo sapiens) (assay: Compound was tested for its activity as substrate of Uroporphyrinogen III synthase; Yes).
In the case of `O=C(O)CCc1c[nH]c(Cc2[nH]c(Cc3[nH]c(Cc4[nH]c(CO)c(CC(=O)O)c4CCC(=O)O)c(CC(=O)O)c3CCC(=O)O)c(CC(=O)O)c2CCC(=O)O)c1CC(=O)O`, the Activity is reported as “Active”.
For `O=C(O)CCc1c[nH]c(Cc2[nH]c(Cc3[nH]c(Cc4[nH]c(CO)c(CC(=O)O)c4CCC(=O)O)c(CC(=O)O)c3CCC(=O)O)c(CCC(=O)O)c2CC(=O)O)c1CC(=O)O`, the Activity was “Active”.
`CCc1c[nH]c(Cc2[nH]c(Cc3[nH]c(Cc4[nH]c(CO)c(CC(=O)O)c4CCC(=O)O)c(CC(=O)O)c3CCC(=O)O)c(CC(=O)O)c2CCC(=O)O)c1CC(=O)O` was tested, and the Activity was “Active”.
For `O=C(O)CCc1c(CC(=O)O)c[nH]c1Cc1[nH]c(Cc2[nH]c(Cc3[nH]c(CO)c(CC(=O)O)c3CCC(=O)O)c(CC(=O)O)c2CCC(=O)O)c(CC(=O)O)c1CCC(=O)O`, the Activity was “Active”.
`O=C(O)CCCc1c[nH]c(Cc2[nH]c(Cc3[nH]c(Cc4[nH]c(CO)c(CC(=O)O)c4CCC(=O)O)c(CC(=O)O)c3CCC(=O)O)c(CC(=O)O)c2CCC(=O)O)c1CC(=O)O` was tested, and the Activity was “Active”.

Each compound was assayed against T1, Uroporphyrinogen-III synthase (Homo sapiens) (assay: Compound was tested for its activity as inhibitor of Uroporphyrinogen III synthase; Yes).
In the case of `Cc1[nH]c(Cc2[nH]c(Cc3[nH]c(Cc4[nH]c(CO)c(CC(=O)O)c4CCC(=O)O)c(CC(=O)O)c3CCC(=O)O)c(CC(=O)O)c2CCC(=O)O)c(CC(=O)O)c1CCC(=O)O`, the Activity is reported as “Active”.
In the case of `O=C(O)CCc1c(Br)[nH]c(Cc2[nH]c(Cc3[nH]c(Cc4[nH]c(CO)c(CC(=O)O)c4CCC(=O)O)c(CC(=O)O)c3CCC(=O)O)c(CC(=O)O)c2CCC(=O)O)c1CC(=O)O`, the Activity is reported as “Active”.
`N#Cc1[nH]c(Cc2[nH]c(Cc3[nH]c(Cc4[nH]c(CO)c(CC(=O)O)c4CCC(=O)O)c(CC(=O)O)c3CCC(=O)O)c(CC(=O)O)c2CCC(=O)O)c(CC(=O)O)c1CCC(=O)O` was tested, and the Activity was “Active”.
In the case of `Cn1cc(CCC(=O)O)c(CC(=O)O)c1Cc1[nH]c(Cc2[nH]c(Cc3[nH]c(CO)c(CC(=O)O)c3CCC(=O)O)c(CC(=O)O)c2CCC(=O)O)c(CC(=O)O)c1CCC(=O)O`, the Activity is reported as “Active”.
`Cn1c(Cc2[nH]cc(CCC(=O)O)c2CC(=O)O)c(CCC(=O)O)c(CC(=O)O)c1Cc1[nH]c(Cc2[nH]c(CO)c(CC(=O)O)c2CCC(=O)O)c(CC(=O)O)c1CCC(=O)O` was tested, and the Activity was “Active”.
`CC(O)c1[nH]c(Cc2[nH]c(Cc3[nH]c(Cc4[nH]cc(CCC(=O)O)c4CC(=O)O)c(CCC(=O)O)c3CC(=O)O)c(CCC(=O)O)c2CC(=O)O)c(CCC(=O)O)c1CC(=O)O` (configuration not stated) was tested, and the Activity was “Active”.
